US20250019400A1, “POLYPEPTIDE AND COSMETIC COMPOSITION OR PHARMACEUTICAL COMPOSITION AND USE THEREOF” (SHENZHEN WINKEY TECHNOLOGY CO., LTD, priority 2022, published 2025)

Tested on: smooth muscle contraction in ileum
Assay: Muscle contraction inhibition experiment (acetylcholine-induced smooth muscle contraction in isolated ileum)
Set-up: species or system SD rats
Details: after acetylcholine, rat ileum
Source text: 10 week old female SD rats weighing 220 g-260 g.
HW-400S constant temperature smooth muscle trough, BL-420E biological function experimental system, tension transducer, and other instruments as conventional experimental instruments.
acetylcholine chloride (Shanghai Yuanye), chloral hydrate (Shanghai Macklin).
• Acetyl octapeptide-3(Ac-Glu-Glu-Met-Gln-Arg-Arg-Ala-Asp-NH2), at a test concentration of 25 ppm, 50 ppm, 100 ppm, and 200 ppm, respectively; • Acetyl hexapeptide-30(Ac-Glu-Asp-Tyr-Tyr-Arg-Leu-NH2), at a test concentration of 25 ppm, 50 ppm, 100 ppm, and 200 ppm, respectively; • the peptide (4), at a test concentration of 25 ppm, 50 ppm, 100 ppm, and 200 ppm, respectively; • the peptide (8), at a test concentration of 25 ppm, 50 ppm, 100 ppm, and 200 ppm, respectively; • the peptide (32), at a test concentration of 100 ppm, 200 ppm, 400 ppm, and 800 ppm, respectively.
The experimental rats were fasted except for water for 12 hours before the experiment. 10% chloral hydrate was injected intraperitoneally into the rats at a dosage of 0.1 mL/25 g, and after the rats were anesthetized, the abdominal cavity was cut open to expose the enlarged cecum. A segment of ileum was taken out from the ileocecal region and washed clean in a tyrode's solution pre-bubbled with oxygen for 10 min, and several 4 cm long segments of ileum were cut and incubated in a tyrode's solution at 4° C. for subsequent use; and both ends of the ileum were tied partially and knotted with cotton threads to form a loop.
The HW-400S constant temperature smooth muscle trough and the BL-420E biological function experimental system were turned on, the tension transducer was connected to channel 1, the incubation temperature was adjusted to 37° C., the instruments were preheated for 0.5 hours, and oxygen was bubbled for more than 10 min. One end of the ileum segment is fixed to the intake bracket port with a cotton thread, and the other end thereof is connected to the tension transducer. The position and height of the transducer were appropriately adjusted to place the excised ileum segment in the center of the smooth muscle trough and then record of ileum activity was started.
After the muscle contraction was stabilized, acetylcholine with a final concentration of 0.1-1 μg/mL was added until a high and stable waveform appears in the muscle activity, and the action lasted for 5 minutes as the initial control. After balancing for 5 minutes, the samples to be tested were added respectively. Each time the test drug was replaced, the ileum segment was replaced with a new one, and relevant data was recorded by the instruments. The inhibition rate of smooth muscle contraction in ileum was calculated according to the following formula:
Inhibition rate of smooth muscle contraction in ileum=(contraction force after acetylcholine administration−contraction force after test sample administration)/contraction force after acetylcholine administration×100%
The experimental data was represented by mean standard deviation (Mean±SD).

| Substance | Inhibition rate of smooth muscle contraction in ileum (25 ppm, Mean±SD) | Inhibition rate of smooth muscle contraction in ileum (50 ppm, Mean±SD) | Inhibition rate of smooth muscle contraction in ileum (100 ppm, Mean±SD) | Inhibition rate of smooth muscle contraction in ileum (200 ppm, Mean±SD) | Inhibition rate of smooth muscle contraction in ileum (800 ppm) |
| --- | --- | --- | --- | --- | --- |
| Ac-Glu-Asp-Tyr-Tyr-Arg-Leu-NH2 (Ac-EDYYRL-NH2) [Acetyl hexapeptide-30, polypeptide in the prior art used as comparison sample, reference compound] | 0.00 ± 2.45% | 0.47 ± 2.09% | 2.73 ± 0.66% | 48.09% | – |
| Ac-Val-Lys-Val-Leu-Gln-Trp-NH2 (Ac-VKVLQW-NH2) [Peptide (4)] | 49.78% | 62.40% | 66.72% | 76.88% | – |
| Ac-Glu-Glu-Met-Gln-Arg-Arg-Ala-Asp-NH2 (Ac-EEMQRRAD-NH2) [Acetyl octapeptide-3, polypeptide in the prior art used as comparison sample, reference compound] | 10.2 ± 1.23% | 32.34% | 47.49% | 58.67% | – |
| Ac-Ser-Met-Gly-Ala-Leu-Ala-NH2 (Ac-SMGALA-NH2) [Peptide (8)] | 31.99% | 34.35% | 56.42% | 67.96% | – |
| Ac-Trp-Ala-Ala-Pro-Phe-Leu-Arg-Ala-NH2 (Ac-WAAPFLRA-NH2) [(32)] | – | – | – | – | 44.41% |
